Source: patent US8192962B2, “Processes for detecting toxic substances” (Daikin Industries, Ltd., priority 2001, dated 2012)

Tested on: Genes belonging to other category
Assay: DNA chip mRNA expression in yeast, genes belonging to other category (Table 9)
Format: cell-based, Saccharomyces cerevisiae S288C
Procedure, shortened: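 S. cerevisiae S288C grown at 25° C in YPD were exposed in log phase for two hours to one toxic chemical at a growth-inhibiting, non-lethal concentration; untreated cells served as control. Poly(A) mRNA was reverse-transcribed with Cy3/Cy5-dUTP and hybridized to a whole-genome yeast DNA chip at 65° C for over 12 hours; values are fluorescence ratios versus untreated.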

How did the “The level of expressed mRNA in the presence of chemical substance/The level of expressed mRNA in the absence of chemical substance” value (yeast gene YKL041W) turn out when `CCCCC[C@H](O)CC(=O)CCc1ccc(O)c(OC)c1` [(13), gingerol] was run?
The value was 1.3.

And the “The level of expressed mRNA in the presence of chemical substance/The level of expressed mRNA in the absence of chemical substance” value (yeast gene YKL096W)?
The value was 0.1.

And the “The level of expressed mRNA in the presence of chemical substance/The level of expressed mRNA in the absence of chemical substance” value (yeast gene YKL139W)?
The value was 1.6.

What about the “The level of expressed mRNA in the presence of chemical substance/The level of expressed mRNA in the absence of chemical substance” value (yeast gene YKL165C) of the same compound?
The value was 3.2.

What about the “The level of expressed mRNA in the presence of chemical substance/The level of expressed mRNA in the absence of chemical substance” value (yeast gene YKL190W) of the same compound?
The value was 1.3.

And the “The level of expressed mRNA in the presence of chemical substance/The level of expressed mRNA in the absence of chemical substance” value (yeast gene YKL193C)?
Its value is 2.1.

What about the “The level of expressed mRNA in the presence of chemical substance/The level of expressed mRNA in the absence of chemical substance” value (yeast gene YKR014C) of the same compound?
Its value is 1.5.

What about the “The level of expressed mRNA in the presence of chemical substance/The level of expressed mRNA in the absence of chemical substance” value (yeast gene YLL051C) of the same compound?
The value was 1.3.

And the “The level of expressed mRNA in the presence of chemical substance/The level of expressed mRNA in the absence of chemical substance” value (yeast gene YLR090W)?
Its value is 1.7.

And the “The level of expressed mRNA in the presence of chemical substance/The level of expressed mRNA in the absence of chemical substance” value (yeast gene YLR093C)?
Its value is 1.3.

What about the “The level of expressed mRNA in the presence of chemical substance/The level of expressed mRNA in the absence of chemical substance” value (yeast gene YLR120C) of the same compound?
Its value is 4.8.

What about the “The level of expressed mRNA in the presence of chemical substance/The level of expressed mRNA in the absence of chemical substance” value (yeast gene YLR136C) of the same compound?
The value was 2.9.

What about the “The level of expressed mRNA in the presence of chemical substance/The level of expressed mRNA in the absence of chemical substance” value (yeast gene YLR250W) of the same compound?
The value was 1.2.

And the “The level of expressed mRNA in the presence of chemical substance/The level of expressed mRNA in the absence of chemical substance” value (yeast gene YLR251W)?
The value was 1.7.

And the “The level of expressed mRNA in the presence of chemical substance/The level of expressed mRNA in the absence of chemical substance” value (yeast gene YLR327C)?
The value was 2.8.

And the “The level of expressed mRNA in the presence of chemical substance/The level of expressed mRNA in the absence of chemical substance” value (yeast gene YMR004W)?
Its value is 2.2.

What about the “The level of expressed mRNA in the presence of chemical substance/The level of expressed mRNA in the absence of chemical substance” value (yeast gene YMR051C) of the same compound?
The value was 1.3.

And the “The level of expressed mRNA in the presence of chemical substance/The level of expressed mRNA in the absence of chemical substance” value (yeast gene YMR104C)?
The value was 1.5.

And the “The level of expressed mRNA in the presence of chemical substance/The level of expressed mRNA in the absence of chemical substance” value (yeast gene YMR139W)?
Its value is 1.6.

And the “The level of expressed mRNA in the presence of chemical substance/The level of expressed mRNA in the absence of chemical substance” value (yeast gene YMR219W)?
Its value is 2.1.

And the “The level of expressed mRNA in the presence of chemical substance/The level of expressed mRNA in the absence of chemical substance” value (yeast gene YMR226C)?
The value was 1.6.

What about the “The level of expressed mRNA in the presence of chemical substance/The level of expressed mRNA in the absence of chemical substance” value (yeast gene YMR262W) of the same compound?
Its value is 1.7.

What about the “The level of expressed mRNA in the presence of chemical substance/The level of expressed mRNA in the absence of chemical substance” value (yeast gene YMR275C) of the same compound?
Its value is 2.1.

What about the “The level of expressed mRNA in the presence of chemical substance/The level of expressed mRNA in the absence of chemical substance” value (yeast gene YMR276W) of the same compound?
The value was 1.9.

And the “The level of expressed mRNA in the presence of chemical substance/The level of expressed mRNA in the absence of chemical substance” value (yeast gene YMR314W)?
Its value is 2.6.

What about the “The level of expressed mRNA in the presence of chemical substance/The level of expressed mRNA in the absence of chemical substance” value (yeast gene YNL006W) of the same compound?
Its value is 2.3.

What about the “The level of expressed mRNA in the presence of chemical substance/The level of expressed mRNA in the absence of chemical substance” value (yeast gene YNL007C) of the same compound?
The value was 2.1.

And the “The level of expressed mRNA in the presence of chemical substance/The level of expressed mRNA in the absence of chemical substance” value (yeast gene YNL093W)?
Its value is 2.2.

What about the “The level of expressed mRNA in the presence of chemical substance/The level of expressed mRNA in the absence of chemical substance” value (yeast gene YNL214W) of the same compound?
Its value is 1.2.

And the “The level of expressed mRNA in the presence of chemical substance/The level of expressed mRNA in the absence of chemical substance” value (yeast gene YNL223W)?
The value was 2.0.

What about the “The level of expressed mRNA in the presence of chemical substance/The level of expressed mRNA in the absence of chemical substance” value (yeast gene YNL333W) of the same compound?
The value was 2.2.

And the “The level of expressed mRNA in the presence of chemical substance/The level of expressed mRNA in the absence of chemical substance” value (yeast gene YNR007C)?
Its value is 1.5.

What about the “The level of expressed mRNA in the presence of chemical substance/The level of expressed mRNA in the absence of chemical substance” value (yeast gene YNR010W) of the same compound?
Its value is 2.8.

And the “The level of expressed mRNA in the presence of chemical substance/The level of expressed mRNA in the absence of chemical substance” value (yeast gene YNR035C)?
The value was 1.7.

And the “The level of expressed mRNA in the presence of chemical substance/The level of expressed mRNA in the absence of chemical substance” value (yeast gene YOL013C)?
Its value is 1.8.

What about the “The level of expressed mRNA in the presence of chemical substance/The level of expressed mRNA in the absence of chemical substance” value (yeast gene YOL016C) of the same compound?
The value was 3.0.

And the “The level of expressed mRNA in the presence of chemical substance/The level of expressed mRNA in the absence of chemical substance” value (yeast gene YOL104C)?
The value was 0.6.

What about the “The level of expressed mRNA in the presence of chemical substance/The level of expressed mRNA in the absence of chemical substance” value (yeast gene YOR117W) of the same compound?
The value was 2.3.

And the “The level of expressed mRNA in the presence of chemical substance/The level of expressed mRNA in the absence of chemical substance” value (yeast gene YOR149C)?
The value was 1.3.

And the “The level of expressed mRNA in the presence of chemical substance/The level of expressed mRNA in the absence of chemical substance” value (yeast gene YOR181W)?
The value was 1.2.

What about the “The level of expressed mRNA in the presence of chemical substance/The level of expressed mRNA in the absence of chemical substance” value (yeast gene YOR185C) of the same compound?
Its value is 2.2.

And the “The level of expressed mRNA in the presence of chemical substance/The level of expressed mRNA in the absence of chemical substance” value (yeast gene YOR355W)?
Its value is 1.1.

And the “The level of expressed mRNA in the presence of chemical substance/The level of expressed mRNA in the absence of chemical substance” value (yeast gene YOR381W)?
Its value is 1.7.

And the “The level of expressed mRNA in the presence of chemical substance/The level of expressed mRNA in the absence of chemical substance” value (yeast gene YOR383C)?
The value was 1.2.

And the “The level of expressed mRNA in the presence of chemical substance/The level of expressed mRNA in the absence of chemical substance” value (yeast gene YPL018W)?
Its value is 2.2.

What about the “The level of expressed mRNA in the presence of chemical substance/The level of expressed mRNA in the absence of chemical substance” value (yeast gene YPL089C) of the same compound?
Its value is 1.3.

What about the “The level of expressed mRNA in the presence of chemical substance/The level of expressed mRNA in the absence of chemical substance” value (yeast gene YPL149W) of the same compound?
The value was 2.3.

And the “The level of expressed mRNA in the presence of chemical substance/The level of expressed mRNA in the absence of chemical substance” value (yeast gene YPL203W)?
The value was 1.5.

What about the “The level of expressed mRNA in the presence of chemical substance/The level of expressed mRNA in the absence of chemical substance” value (yeast gene YPL255W) of the same compound?
The value was 0.6.

And the “The level of expressed mRNA in the presence of chemical substance/The level of expressed mRNA in the absence of chemical substance” value (yeast gene YPR108W)?
The value was 2.6.
